In paper PMC5190074, “BET inhibition as a new strategy for the treatment of gastric cancer” (Oncotarget, 2016):

Columns and labels:
Assay in all cases: biochemical
Parameters in all cases: thermal shift assay (real-time PCR machine), melting temperature shift of recombinant bromodomains at 2 uM protein
[1] = target: T1, PHIP(2) (Homo sapiens, UniProt Q8WWQ0)
T1 construct: bromodomain 2
Experimental: (§1) The recombinant bromodomains at 2 μM were mixed with 10 μM inhibitors. The assays and data evaluation for melting temperatures were performed using a Real-Time PCR Mx3005p machine (Stratagene) and the protocols previously described. Experiments profiling the final compound (PNZ5) were performed in quadruplicates. […] Since its discovery in our own labs, similar inhibitors have also been disclosed by researchers at Boehringer Ingelheim [reference: patent, WO 2014/154760 [31]]. The inhibitor contains two possible acetyl-lysine mimetic moieties. In order to obtain molecular insights on the interaction of the developed inhibitor, the crystal structure of the first bromodomain of BRD4 in complex with PNZ5 was solved at 1.85 Å (Figure 2C and Supplementary Table 4, 5FBX.pdb). The inhibitor, coordinating residues and water molecules were well defined by the electron density. The dimethylisoxazole moiety mimicked the acetyl lysine side chain and formed two canonical hydrogen-bond interactions with Asn140 and water mediated hydrogen-bond with Tyr 97 (Figure 2C). The common network of waters within the binding site was also conserved in the BRD4(1)-PNZ5 complex. The compound was further stabilized by lipophilic interactions with residues forming the binding site Leu92, Leu94, Ile146. The [compound left out] substituent was well accommodated next to the WPF shelf, as well as the N1-methyl substituent that formed hydrophobic interactions with Trp81. The carbonyl on the isoindolinone established a water-mediated hydrogen bond with Lys91.

[2] = target: T2, ATAD2 (Homo sapiens, UniProt Q6PL18)
T2 construct: bromodomain
Experimental: as §1

[3] = target: T3, PB1(1) (Homo sapiens, UniProt Q86U86)
T3 construct: gene PBRM1; bromodomain 1
Experimental: as §1

[4] = target: T4, SMARCA4 (Homo sapiens, UniProt P51532)
T4 construct: bromodomain
Experimental: as §1

[5] = target: T5, CREBBP (Homo sapiens, UniProt Q92793)
T5 construct: bromodomain
Experimental: as §1

[6] = target: T6, CECR2 (Homo sapiens, UniProt Q9BXF3)
T6 construct: bromodomain
Experimental: as §1

[7] = target: T7, BAZ2B (Homo sapiens, UniProt Q9UIF8)
T7 construct: bromodomain
Experimental: as §1

[8] = target: T8, BRD9 (Homo sapiens, UniProt Q9H8M2)
T8 construct: bromodomain
Experimental: as §1

[9] = target: T9, BAZ1A (Homo sapiens, UniProt Q9NRL2)
T9 construct: bromodomain
Experimental: as §1

[10] = target: T10, BRWD3(2) (Homo sapiens, UniProt Q6RI45)
T10 construct: bromodomain 2
Experimental: as §1

[11] = target: T11, SP140 (Homo sapiens, UniProt Q13342)
T11 construct: bromodomain
Experimental: as §1

[12] = target: T12, WDR9(2) (Homo sapiens, UniProt Q9NSI6)
T12 construct: gene BRWD1; bromodomain 2
Experimental: as §1

[13] = target: T13, BRD4(1), first bromodomain of BRD4 (Homo sapiens, UniProt O60885)
T13 construct: first bromodomain; BRD4_HUMAN O60884-1 fragment 44-168 (crystallography)
Experimental: as §1

[14] = target: T14, TIF1-phd-bromo (Homo sapiens, UniProt O15164)
T14 construct: gene TRIM24; PHD-bromodomain
Experimental: as §1

[15] = target: T15, BRDT(1) (Homo sapiens, UniProt Q58F21)
T15 construct: bromodomain 1
Experimental: as §1

[16] = target: T16, PB1(3) (Homo sapiens, UniProt Q86U86)
T16 construct: gene PBRM1; bromodomain 3
Experimental: as §1

[17] = target: T17, PB1(5) (Homo sapiens, UniProt Q86U86)
T17 construct: gene PBRM1; bromodomain 5
Experimental: as §1

[18] = target: T18, GCN5L2 (Homo sapiens, UniProt Q92830)
T18 construct: gene KAT2A; bromodomain
Experimental: as §1

[19] = target: T19, BRD3(1) (Homo sapiens, UniProt Q15059)
T19 construct: bromodomain 1
Experimental: as §1

[20] = target: T20, BRD4(2) (Homo sapiens, UniProt O60885)
T20 construct: bromodomain 2
Experimental: as §1

T10 sequence (Q6RI45 whole entry): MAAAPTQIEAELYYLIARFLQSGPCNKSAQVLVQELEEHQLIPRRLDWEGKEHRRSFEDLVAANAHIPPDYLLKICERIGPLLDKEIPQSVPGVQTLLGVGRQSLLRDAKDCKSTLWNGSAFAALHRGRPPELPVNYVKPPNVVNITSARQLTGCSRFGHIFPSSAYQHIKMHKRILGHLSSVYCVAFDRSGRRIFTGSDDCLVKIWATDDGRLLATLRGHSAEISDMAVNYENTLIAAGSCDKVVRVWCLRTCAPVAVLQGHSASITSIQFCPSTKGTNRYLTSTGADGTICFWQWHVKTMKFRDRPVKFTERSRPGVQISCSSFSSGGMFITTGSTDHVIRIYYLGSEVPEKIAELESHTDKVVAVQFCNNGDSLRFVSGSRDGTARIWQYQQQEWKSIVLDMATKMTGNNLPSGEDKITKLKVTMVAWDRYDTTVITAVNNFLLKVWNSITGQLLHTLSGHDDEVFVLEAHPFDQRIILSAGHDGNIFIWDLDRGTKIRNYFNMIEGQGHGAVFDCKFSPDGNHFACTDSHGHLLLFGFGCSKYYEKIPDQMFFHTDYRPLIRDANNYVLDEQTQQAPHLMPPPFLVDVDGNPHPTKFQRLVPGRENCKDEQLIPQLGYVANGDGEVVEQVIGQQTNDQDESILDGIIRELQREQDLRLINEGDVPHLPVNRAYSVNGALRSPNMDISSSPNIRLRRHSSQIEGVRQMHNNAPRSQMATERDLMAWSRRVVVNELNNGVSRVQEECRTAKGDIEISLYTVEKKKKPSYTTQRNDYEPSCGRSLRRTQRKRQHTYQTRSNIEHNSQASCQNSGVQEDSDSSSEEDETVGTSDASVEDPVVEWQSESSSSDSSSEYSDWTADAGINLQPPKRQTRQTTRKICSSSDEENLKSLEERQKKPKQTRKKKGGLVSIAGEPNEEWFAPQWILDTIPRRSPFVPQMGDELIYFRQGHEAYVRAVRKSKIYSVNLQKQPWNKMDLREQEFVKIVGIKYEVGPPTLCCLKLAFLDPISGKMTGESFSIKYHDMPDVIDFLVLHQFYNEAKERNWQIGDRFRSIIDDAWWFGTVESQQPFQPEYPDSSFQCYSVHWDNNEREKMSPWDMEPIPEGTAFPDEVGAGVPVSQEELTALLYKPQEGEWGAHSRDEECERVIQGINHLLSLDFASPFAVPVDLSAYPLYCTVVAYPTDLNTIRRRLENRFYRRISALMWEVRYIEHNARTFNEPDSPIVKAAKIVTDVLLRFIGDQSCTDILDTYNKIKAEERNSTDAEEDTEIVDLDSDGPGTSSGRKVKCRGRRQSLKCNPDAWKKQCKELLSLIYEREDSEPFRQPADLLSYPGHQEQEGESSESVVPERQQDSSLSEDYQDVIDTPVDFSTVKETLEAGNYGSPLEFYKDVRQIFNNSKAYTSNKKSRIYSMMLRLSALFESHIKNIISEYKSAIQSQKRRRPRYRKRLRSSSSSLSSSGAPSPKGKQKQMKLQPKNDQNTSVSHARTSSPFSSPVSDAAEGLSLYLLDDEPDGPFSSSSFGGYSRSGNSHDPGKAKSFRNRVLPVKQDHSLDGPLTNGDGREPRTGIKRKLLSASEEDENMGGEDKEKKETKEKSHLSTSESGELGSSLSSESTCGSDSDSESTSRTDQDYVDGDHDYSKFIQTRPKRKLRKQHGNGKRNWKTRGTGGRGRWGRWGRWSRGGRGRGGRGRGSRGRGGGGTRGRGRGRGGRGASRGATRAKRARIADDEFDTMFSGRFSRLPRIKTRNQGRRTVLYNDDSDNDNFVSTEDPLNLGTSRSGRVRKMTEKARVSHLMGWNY
T17 sequence (Q86U86 whole entry): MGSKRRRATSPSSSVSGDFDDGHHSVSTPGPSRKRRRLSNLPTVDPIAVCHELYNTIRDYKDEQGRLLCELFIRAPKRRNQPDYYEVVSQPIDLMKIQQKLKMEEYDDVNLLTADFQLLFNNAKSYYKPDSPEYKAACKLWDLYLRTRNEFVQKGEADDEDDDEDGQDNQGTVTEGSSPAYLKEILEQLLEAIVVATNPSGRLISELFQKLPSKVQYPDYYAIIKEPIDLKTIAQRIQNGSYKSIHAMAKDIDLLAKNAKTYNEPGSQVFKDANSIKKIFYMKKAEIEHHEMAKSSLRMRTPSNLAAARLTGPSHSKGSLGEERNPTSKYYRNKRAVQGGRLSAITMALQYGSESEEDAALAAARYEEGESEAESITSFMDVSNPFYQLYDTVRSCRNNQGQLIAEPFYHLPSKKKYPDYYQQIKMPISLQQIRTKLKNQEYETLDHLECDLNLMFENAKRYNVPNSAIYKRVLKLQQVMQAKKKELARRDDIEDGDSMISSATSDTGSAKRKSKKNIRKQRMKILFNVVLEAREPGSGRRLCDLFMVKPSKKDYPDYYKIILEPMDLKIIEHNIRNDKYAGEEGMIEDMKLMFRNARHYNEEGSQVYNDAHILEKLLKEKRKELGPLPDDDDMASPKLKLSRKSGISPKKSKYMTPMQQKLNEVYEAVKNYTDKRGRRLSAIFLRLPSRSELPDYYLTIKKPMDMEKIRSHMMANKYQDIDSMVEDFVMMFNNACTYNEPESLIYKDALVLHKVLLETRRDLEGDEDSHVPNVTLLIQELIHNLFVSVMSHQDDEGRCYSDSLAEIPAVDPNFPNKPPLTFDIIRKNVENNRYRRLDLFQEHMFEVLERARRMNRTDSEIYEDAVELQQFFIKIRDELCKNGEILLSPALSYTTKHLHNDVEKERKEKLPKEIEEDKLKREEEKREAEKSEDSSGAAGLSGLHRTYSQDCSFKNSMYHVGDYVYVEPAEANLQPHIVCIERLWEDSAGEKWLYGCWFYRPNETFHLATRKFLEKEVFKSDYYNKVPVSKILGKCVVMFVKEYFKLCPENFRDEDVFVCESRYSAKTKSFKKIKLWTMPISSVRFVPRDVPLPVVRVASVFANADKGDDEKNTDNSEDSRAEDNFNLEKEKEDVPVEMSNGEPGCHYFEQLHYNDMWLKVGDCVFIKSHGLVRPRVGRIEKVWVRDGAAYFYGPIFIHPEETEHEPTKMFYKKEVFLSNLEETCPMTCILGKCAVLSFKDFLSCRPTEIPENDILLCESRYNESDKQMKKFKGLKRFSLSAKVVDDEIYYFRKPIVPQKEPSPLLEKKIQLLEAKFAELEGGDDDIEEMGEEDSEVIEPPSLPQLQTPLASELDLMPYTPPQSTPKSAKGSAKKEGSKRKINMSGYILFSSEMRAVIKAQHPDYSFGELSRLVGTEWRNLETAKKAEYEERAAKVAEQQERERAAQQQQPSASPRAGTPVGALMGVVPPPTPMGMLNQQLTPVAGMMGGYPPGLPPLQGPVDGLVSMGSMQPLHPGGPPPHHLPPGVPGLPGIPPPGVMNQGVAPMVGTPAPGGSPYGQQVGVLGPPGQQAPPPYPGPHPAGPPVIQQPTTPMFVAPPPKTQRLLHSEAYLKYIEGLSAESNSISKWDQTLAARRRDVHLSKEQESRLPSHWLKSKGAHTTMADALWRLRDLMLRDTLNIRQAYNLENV
T3 sequence (Q86U86 whole entry): as above

Structure (SMILES): Cc1noc(C)c1-c1ccc2c(c1)[C@H](c1ccccc1)N(C)C2=O [PNZ5]
- ΔTm at 10 µM [1]: 0.22 °C
- ΔTm at 10 µM [2]: 0.13 °C
- ΔTm at 10 µM [3]: 0.79 °C
- ΔTm at 10 µM [4]: 0.04 °C
- ΔTm at 10 µM [5]: 2.37 °C
- ΔTm at 10 µM [6]: 0.19 °C
- ΔTm at 10 µM [7]: 0.38 °C
- ΔTm at 10 µM [8]: 1.85 °C
- ΔTm at 10 µM [9]: 1.2 °C
- ΔTm at 10 µM [10]: 0.74 °C
- ΔTm at 10 µM [11]: 0.87 °C
- ΔTm at 10 µM [12]: 0.38 °C
- ΔTm at 10 µM [13]: 10.1 °C
- ΔTm at 10 µM [14]: 0.06 °C
- ΔTm at 10 µM [15]: 6.19 °C
- ΔTm at 10 µM [16]: 0.12 °C
- ΔTm at 10 µM [17]: 0.28 °C
- ΔTm at 10 µM [18]: 0.25 °C
- ΔTm at 10 µM [19]: 9.79 °C
- ΔTm at 10 µM [20]: 7.04 °C
